We go through 30 compounds from US20050014765A1, “Aryl-heteroaromatic products, compositions comprising them and use” (Aventis Pharma S.A., priority 2003, published 2005).

The target of test [1] is T1, Tubulin purified from pig brains (Sus scrofa, UniProt P02550+P02554).
T1 construct: Tubulin is purified from pig brains according to published methods; from tissue; host or cells: pig brain
Briefly: Assessment of the inhibition of tubulin polymerization (turbidimetry at 350 nm). The format is biochemical. The following applies: concentration which inhibits the rate of polymerization by 50%; tubulin 1 mg/ml, 37° C.; read-out: Inhibition of tubulin polymerization IC 50. On the procedure: Assessment of the Inhibition of Tubulin Polymerization
Tubulin is purified from pig brains according to published methods (Shelanski et al., 1973, Proc. Natl. Acad. Sci. USA, 70, 765-768. Weingarten et al., 1975, Proc. Natl. Acad. Sci. USA, 72, 1858-1862). Briefly, the brains are ground and centrifuged in an extraction buffer. The tubulin, present in the extract supernatant is subjected to two successive cycles of polymerization at 37° C. and depolymerization at 4° C., before being separated from the MAPs (Microtubule Associated Proteins) by chromatography on a phosphocellulose P11 column (Whatman). The tubulin thus isolated is more than 95% pure. It is stored in a buffer known as RB/2 30% glycerol, the composition of which is 50 mM MES-NaOH [2-(N-morpholino)ethanesulfonic acid], pH 6.8; 0.25 mM MgCl2; 0.5 mM EGTA; 30% (v/v) glycerol, 0.2 mM GTP (guanosine 5′-triphosphate).
The polymerization of the tubulin into microtubules is monitored by turbidimetry as follows: the tubulin is adjusted to a concentration of 10 μm (1 mg/ml) in the RB/2 30% glycerol buffer, to which are added 1 mM GTP and 6 mM MgCl2. The polymerization is initiated by increasing the temperature from 6° C. to 37° C. in a cuvette with a 1 cm optical pathlength, placed in a UVIKON 931 spectrophotometer (Kontron) equipped with a thermostatically-regulated cuvette holder. The increase in turbidity of the solution is monitored at 350 nm.
The products are dissolved at 10 mM in DMSO and added at variable concentrations (0.5 to 10 μm) to the tubulin solution before polymerization. The IC50 is defined as the concentration of the product which inhibits the rate of polymerization by 50%.

Test [2] has as its system HCT116 cells. Briefly: Inhibition of proliferation of the HCT116 human colon tumor line ([14C]-thymidine incorporation). The format is cell-based. The conditions noted are these: HCT-116, 48 hours incubation at 37° C., read-out: Inhibition of HCT116 proliferation IC 50. The procedure: Test for Determining the Inhibition of Proliferation of the HCT116 Human Colon Tumor Line
The proliferation of HCT116 cells is evaluated by mesuring the incorporation of [^14C]-thymidine in the following way. The HCT166 cells (from the ATCC) are cultured in a DMEM medium (Gibco) which contains 10% of fetal calf serum and antibiotics (1% penicillin, 1% streptomycin). To perform the proliferation test, the cells are seeded into 96-well cytostar microplates (Amersham) at the rate of 5000 cells per well. The [^14C]-thymidine (0.1 μCi/well) and the products to be evaluated are subsequently added. Variable concentrations of products up to 10 μM are used; the DMSO (solvent used to dissolve the products) should not exceed 0.5% in the medium. 48 hours after incubation at 37° C., the radioactivity incorporated into the cells is measured by counting the plate in a Tri-Lux counter (Wallac). The IC50 is defined as the concentration of product which reduces the radioactivity by 50% compared with an untreated control. A product with an IC50 of less than 10 μm is regarded as cytotoxic.

Molecules are shown by their SMILES. Counter-ions that a name gives are not always drawn.

T1 sequence (P02550 whole entry): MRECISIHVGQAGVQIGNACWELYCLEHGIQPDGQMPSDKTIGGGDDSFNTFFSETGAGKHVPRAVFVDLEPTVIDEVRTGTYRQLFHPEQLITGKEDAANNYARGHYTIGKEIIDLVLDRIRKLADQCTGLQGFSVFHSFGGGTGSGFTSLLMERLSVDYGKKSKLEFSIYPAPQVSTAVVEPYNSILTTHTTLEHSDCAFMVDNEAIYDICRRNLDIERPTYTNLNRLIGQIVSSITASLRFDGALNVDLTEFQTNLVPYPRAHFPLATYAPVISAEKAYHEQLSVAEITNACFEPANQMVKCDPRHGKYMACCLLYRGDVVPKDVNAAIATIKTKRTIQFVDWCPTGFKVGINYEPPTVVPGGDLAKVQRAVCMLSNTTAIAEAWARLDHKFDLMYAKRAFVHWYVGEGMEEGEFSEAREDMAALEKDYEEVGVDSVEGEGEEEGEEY
T1 sequence (P02554 whole entry): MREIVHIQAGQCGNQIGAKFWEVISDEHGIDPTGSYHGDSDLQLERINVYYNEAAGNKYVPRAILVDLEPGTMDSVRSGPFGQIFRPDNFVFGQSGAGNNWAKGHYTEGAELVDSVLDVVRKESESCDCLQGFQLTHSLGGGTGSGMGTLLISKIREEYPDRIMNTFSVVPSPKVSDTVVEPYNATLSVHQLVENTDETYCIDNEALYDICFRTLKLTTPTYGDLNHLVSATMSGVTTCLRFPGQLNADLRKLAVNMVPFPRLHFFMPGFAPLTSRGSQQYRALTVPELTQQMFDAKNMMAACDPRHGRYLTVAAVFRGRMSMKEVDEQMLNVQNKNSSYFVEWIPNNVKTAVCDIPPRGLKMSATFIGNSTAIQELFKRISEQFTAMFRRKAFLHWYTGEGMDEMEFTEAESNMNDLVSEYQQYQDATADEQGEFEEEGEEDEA

`O=C(c1cncn1-c1ccccc1)N1CCN(c2cccc(Cl)c2)CC1` [Example 1, [4-(3-Chlorophenyl)piperazin-1-yl](1-phenyl-1H-imidazol-5-yl)methanone]: the IC50 in test [1] came out at 2000 nM; in test [2], 29.6 nM.
Regarding `O=C(c1ncoc1-c1ccccc1)N1CCN(c2cccc(Cl)c2)CC1` [Example 2, [4-(3-Chlorophenyl)piperazin-1-yl](5-phenyl-1,3-oxazol-4-yl)methanone], the IC50 in test [1] stood at 22000 nM; in test [2], 8750 nM.
Consider `O=C(c1[nH]cnc1-c1ccccc1)N1CCN(c2cccc(Cl)c2)CC1` [Example 3, [4-(3-Chlorophenyl)piperazin-1-yl](4-phenyl-1H-imidazol-5-yl)methanone], for which the IC50 in test [1] turned out to be 1000 nM; in test [2], 6.8 nM.
For `O=C(c1sccc1-c1ccccc1)N1CCN(c2cccc(Cl)c2)CC1` [Example 4, [4-(3-Chlorophenyl)piperazin-1-yl](3-phenylthiophen-2-yl)methanone], the IC50 in test [1] turned out to be 2000 nM; in test [2], 52.5 nM.
With `COc1cccc(N2CCN(C(=O)c3ccoc3-c3ccc(Cl)cc3)CC2)c1` [Example 5, [4-(3-Methoxyphenyl)piperazin-1-yl][2-(4-chlorophenyl)furan-3-yl]methanone], the IC50 in test [1] worked out at 11500 nM.
As to `O=C(c1[nH]ccc1-c1ccccc1)N1CCN(c2cccc(Cl)c2)CC1` [Example 6, [4-(3-Chlorophenyl)piperazin-1-yl](3-phenyl-1H-pyrrol-2-yl)methanone], the IC50 in test [1] came out at 690 nM; in test [2], 34 nM.
For `Cn1ccc(-c2ccccc2)c1C(=O)N1CCN(c2cccc(Cl)c2)CC1` [Example 7, [4-(3-Chlorophenyl)piperazin-1-yl](1-methyl-3-phenyl-1H-pyrrol-2-yl)-methanone], the IC50 in test [1] amounted to 12800 nM.
With `COc1cc(OC)cc(N2CCN(C(=O)c3[nH]ccc3-c3ccccc3)CC2)c1` [Example 8, [4-(3,5-Dimethoxyphenyl)piperazin-1-yl](3-phenyl-1H-pyrrol-2-yl)methanone], the IC50 in test [1] came out at 1200 nM; in test [2] it was 2.9 nM.
The corresponding values for `O=C(c1[nH]cnc1-c1ccccc1)N1CCN(c2cccnc2)CC1` [Example 10, [4-(Pyridin-3-yl)piperazin-1-yl](4-phenyl-1H-imidazol-5-yl)methanone] are 3100 nM and 88.5 nM.
For the compound `COc1cc(OC)cc(N2CCN(C(=O)c3cncn3-c3ccccc3)CC2)c1` [Example 11, [4-(3,5-Dimethoxyphenyl)piperazin-1-yl](1-phenyl-1H-imidazol-5-yl)-methanone hydrochloride], the figures for the IC50 in test [1] and in test [2] were 2400 nM and 45.7 nM, respectively.
The corresponding values for `CC(=O)Nc1cccc(N2CCN(C(=O)c3[nH]cnc3-c3ccccc3)CC2)c1` [Example 12, [4-(3-Acetylaminophenyl)piperazin-1-yl](4-phenyl-1H-imidazol-5-yl)methanone] are 3500 nM and 1190 nM.
`COc1cc(OC)cc(N2CCN(C(=O)c3cc[nH]c3-c3ccccc3)CC2)c1` [Example 21, [4-(3,5-Dimethoxyphenyl)piperazin-1-yl](2-phenyl-1H-pyrrol-3-yl)methanone]: in test [1], the IC50 is 9700 nM.
For the compound `CN(C)CCn1cc(C(=O)N2CCN(c3cccc(Cl)c3)CC2)c(-c2ccccc2)c1` [Example 31, [4-(3-Chlorophenyl)piperazin-1-yl][1-(2-dimethylaminoethyl)-4-phenyl-1H-pyrrol-3-yl]methanone hydrochloride], the IC50 in test [1] was found to be 25000 nM.
In the case of `O=C(O)CCn1cc(C(=O)N2CCN(c3cccc(Cl)c3)CC2)c(-c2ccccc2)c1` [Example 32, 3-{3-[4-(3-Chlorophenyl)piperazin-1-ylcarbonyl]-4-phenylpyrrol-1-yl}-propionic acid], the IC50 in test [1] turned out to be 2740 nM.
The same measure, in the same setting: under `NC(=O)c1cccc(N2CCN(C(=O)c3[nH]c(S)nc3-c3ccccc3)CC2)c1` [Example 44, 3-[4-(2-Mercapto-4-phenyl-1H-imidazol-5-ylcarbonyl)piperazin-1-yl]benzamide] stands 1060 nM; under `COc1cc(OC)cc(N2CCN(C(=O)c3cn(Cc4cscn4)cc3-c3ccccc3)CC2)c1` [Example 45, [4-(3,5-Dimethoxyphenyl)piperazin-1-yl][1-(thiazol-4-yl)methyl-4-phenyl-1H-pyrrol-3-yl]methanone], 4850 nM; under `COC(=O)Cn1ccc(C(=O)N2CCN(c3cc(OC)cc(OC)c3)CC2)c1-c1ccccc1` [Example 49, Methyl 2-{3-[4-(3,5-dimethoxyphenyl)piperazin-1-yl]carbonyl-2-phenyl-1H-pyrrol-1-yl}acetate], 1570 nM.
With `COc1cc(OC)cc(N2CCN(C(=O)c3ccn(Cc4cccnc4)c3-c3ccccc3)CC2)c1` [Example 64, [4-(3,5-Dimethoxyphenyl)piperazin-1-yl][1-(3-pyridyl)methyl-2-phenyl-1H-pyrrol-3-yl]methanone], the IC50 in test [1] was 13400 nM.
Turning to `COC(=O)Cn1cc(C(=O)N2CCN(c3cccc(C(N)=O)c3)CC2)c(-c2ccccc2)c1` [Example 65], in test [1], the IC50 is 13500 nM.
With `CS(=O)(=O)c1nc(-c2ccccc2)c(C(=O)N2CCN(c3cccc(C(N)=O)c3)CC2)[nH]1` [Example 71, 3-[4-(2-Methylsulfonyl-4-phenyl-1H-imidazol-4-ylcarbonyl)piperazin-1-yl]benzamide], the IC50 in test [1] was determined as 13900 nM.
For the compound `NC(=O)c1cccc(N2CCN(C(=O)c3ccn(CCO)c3-c3ccccc3)CC2)c1` [Example 77, 3-[4-(1-Hydroxyethyl-2-phenyl-1H-pyrrol-3-ylcarbonyl)piperazin-1-yl]-benzamide], the IC50 in test [1] amounted to 3610 nM.
Same read-out and setting: under `Cn1ccc(C(=O)N2CCN(c3cccc(CO)c3)CC2)c1-c1ccccc1` [Example 80, [4-(3-Hydroxymethylphenyl)piperazin-1-yl](1-methyl-2-phenyl-1H-pyrrol-3-yl)-methanone] stands 7760 nM.
As for `O=C(c1[nH]c(C(F)(F)F)nc1-c1ccccc1)N1CCN(c2cccc(CO)c2)CC1` [Example 83, [4-(3-Hydroxymethylphenyl)piperazin-1-yl](2-trifluoromethyl-4-phenyl-1H-imidazol-5-yl)methanone], the IC50 in test [1] worked out at 1410 nM.
Still for that read-out and setting: in the case of `N#Cc1cccc(N2CCN(C(=O)c3[nH]c(C(F)(F)F)nc3-c3ccccc3)CC2)c1` [Example 84, 3-[4-(2-Trifluoromethyl-4-phenyl-1H-imidazol-5-ylcarbonyl)piperazin-1-yl]-benzonitrile] it was 574 nM.
The same measure, in the same setting: in the case of `O=C(c1cc[nH]c1-c1ccccc1)N1CCN(c2cccc(CO)c2)CC1` [Example 86, [4-(3-Hydroxymethylphenyl)piperazin-1-yl](2-phenyl-1H-pyrrol-3-yl)methanone] it was 6410 nM; in that of `N#Cc1cccc(N2CCN(C(=O)c3cn(CCO)cc3-c3ccccc3)CC2)c1` [Example 87, 3-[4-(1-Hydroxyethyl-4-phenyl-1H-pyrrol-3-ylcarbonyl)piperazin-1-yl]-benzonitrile], 582 nM.
`O=C(c1ccn(CCO)c1-c1ccccc1)N1CCN(c2cccc(CO)c2)CC1` [Example 89]: the IC50 in test [1] is 2990 nM.
Still for that read-out and setting: under `COCCNc1nc(-c2ccccc2)c(C(=O)N2CCN(c3cc(C)cc(C)c3)CC2)s1` [Example 90, [4-(3,5-Dimethylphenyl)piperazin-1-yl][2-(2-methoxyethyl)amino-4-phenylthiazol-5-yl]methanone] stands 95 nM.
`COCCNc1nc(-c2ccccc2)c(C(=O)N2CCN(c3cc(OC)cc(OC)c3)CC2)s1` [Example 91, [4-(3,5-Dimethoxyphenyl)piperazin-1-yl][2-(2-methoxyethyl)amino-4-phenylthiazol-5-yl]methanone]: the IC50 in test [1] turned out to be 89 nM.
For `N#Cc1cccc(N2CCN(C(=O)c3cn(Cc4cccnc4)cc3-c3ccccc3)CC2)c1` [Example 92, 3-{4-[1-(Pyridin-3-yl)methyl-4-phenyl-1H-pyrrol-3-ylcarbonyl]piperazin-1-yl}-benzonitrile], in test [1], the IC50 was 167 nM.
